According to patent US8076338B2, “Kinase modulators and methods of use” (Exelixis, Inc., priority 2004, dated 2011):
Where two headings read alike, the source gives them in different places.

Columns and labels:
AktK = AktK (Homo sapiens, UniProt P31749); assay: Luciferase-coupled chemiluminescence kinase assay (ATP consumption); format: biochemical; conditions: read-out: AKT-1 IC50
Method: (§1) One measure of inhibition is Ki. […] The Ki for a compound is determined from the IC50 based on three assumptions. First, only one compound molecule binds to the enzyme and there is no cooperativity. […] Third, the enzymatic rate of the enzyme-inhibitor complex is zero. The rate data (i.e. compound concentration) are fitted to the equation: […]
(§2) Luciferase-Coupled Chemiluminescence Assay Protocol
(§3) Kinase activity is measured as the percent of ATP consumed following the kinase reaction using luciferase-luciferin-coupled chemiluminescence. Reactions were conducted in 384-well white, medium binding microtiter plates (Greiner). Kinase reactions were initiated by combining test compounds, ATP and kinase in a 20 uL volume. The reaction mixture was incubated at ambient temperature for 3 hrs. For p70S6K and/or AktK, 2.5-5 nM of the enzyme was pre-incubated with compound in 20 mM Tris pH 7.5, 10 mM MgCl2, 0.03% TX-100, and 1 mM DTT for 30 minutes at room temperature. Following the kinase reaction, a 20 μL aliquot of luciferase-luciferin mix was added and the chemiluminescence signal measured using a Victor^2 plate reader (Perkin Elmer). The luciferase-luciferin mix contained 50 mM HEPES, pH 7.8, 67 mM oxalic acid (pH 7.8), 5 (or 50) mM DTT, 0.4% Triton X-100, 0.25 mg/mL coenzyme A, 63 μM AMP, 28 μg/1 mL luciferin and 40,000 units/mL luciferase. Total ATP consumption was limited to 25-60% and the IC50 values correlate well with those determined by radiometric assays.

p70S6K = p70S6K (Homo sapiens, UniProt P23443); assay: as above; format: biochemical
Chain of p70S6K (P23443 whole entry): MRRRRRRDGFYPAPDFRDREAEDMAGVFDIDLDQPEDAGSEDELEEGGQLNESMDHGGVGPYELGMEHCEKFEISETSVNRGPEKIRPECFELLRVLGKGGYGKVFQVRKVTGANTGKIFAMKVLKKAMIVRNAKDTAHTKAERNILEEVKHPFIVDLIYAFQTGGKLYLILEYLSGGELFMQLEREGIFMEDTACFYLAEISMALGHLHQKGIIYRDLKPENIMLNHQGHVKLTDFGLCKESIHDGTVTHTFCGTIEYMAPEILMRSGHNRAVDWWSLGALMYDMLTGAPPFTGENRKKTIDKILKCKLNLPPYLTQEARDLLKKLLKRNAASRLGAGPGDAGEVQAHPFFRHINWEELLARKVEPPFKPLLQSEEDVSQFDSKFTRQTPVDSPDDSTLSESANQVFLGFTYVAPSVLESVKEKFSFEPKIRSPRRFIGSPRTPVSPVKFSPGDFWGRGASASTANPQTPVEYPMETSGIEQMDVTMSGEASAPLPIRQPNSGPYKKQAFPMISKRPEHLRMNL
Method: as §1, §2, §3

Chain of AktK (P31749 whole entry): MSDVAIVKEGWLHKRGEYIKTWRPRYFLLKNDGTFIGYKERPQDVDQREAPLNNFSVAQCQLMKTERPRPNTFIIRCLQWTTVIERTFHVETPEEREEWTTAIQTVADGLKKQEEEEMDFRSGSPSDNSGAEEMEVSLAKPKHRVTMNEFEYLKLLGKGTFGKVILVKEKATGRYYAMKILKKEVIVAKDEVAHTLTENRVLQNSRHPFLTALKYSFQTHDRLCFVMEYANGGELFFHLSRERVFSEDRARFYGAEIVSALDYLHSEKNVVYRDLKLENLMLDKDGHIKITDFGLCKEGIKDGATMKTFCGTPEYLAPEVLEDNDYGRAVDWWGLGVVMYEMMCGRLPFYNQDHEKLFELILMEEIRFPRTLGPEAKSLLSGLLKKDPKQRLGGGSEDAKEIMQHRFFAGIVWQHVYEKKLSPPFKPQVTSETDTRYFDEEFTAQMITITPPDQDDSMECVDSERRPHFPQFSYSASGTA

Compound | IC50 (AktK; Table 1, class symbols per key) [µM] | IC50 (p70S6K; Table 1, class symbols per key) [µM] | IC50 (AktK) [µM] | IC50 (p70S6K) [µM]
Cc1ccc(C(=O)O)cc1N1CCN(c2ncnc3[nH]nc(Br)c23)CC1 [Entry 180, 3-[4-(3-bromo-1H-pyrazolo[3,4-d]pyrimidin-4-yl)piperazin-1-yl]-4-methylbenzoic acid] | 0.1 to 1 | < 0.1 | – | –
CCc1n[nH]c2ncnc(N3CCN(c4cc(Cl)cc(NCCN(C)CC)c4C)CC3)c12 [Entry 147, N′-{5-chloro-3-[4-(3-ethyl-1H-pyrazolo[3,4-d]pyrimidin-4-yl)piperazin-1-yl]-2-methylphenyl}-N-ethyl-N-methylethane-1,2-diamine] | 0.1 to 1 | < 0.1 | – | –
Brc1n[nH]c2ncnc(N3CCN(c4ccccn4)CC3)c12 [Entry 63, 3-bromo-4-(4-pyridin-2-ylpiperazin-1-yl)-1H-pyrazolo[3,4-d]pyrimidine] | 1 to 10 | 0.1 to 1 | – | –
Cc1c(OCCN2CCOCC2)cc(Cl)cc1N1CCN(c2ncnc3[nH]nc(C(F)(F)F)c23)CC1 [Entry 41, 4-(4-{5-chloro-2-methyl-3-[(2-morpholin-4-ylethyl)oxy]phenyl}piperazin-1-yl)-3-(trifluoromethyl)-1H-pyrazolo[3,4-d]pyrimidine] | 1 to 10 | < 0.1 | – | –
Cc1c(NCCN2CCCC2)cc(OCC(F)(CF)CF)cc1N1CCN(c2ncnc3[nH]nc(Br)c23)CC1 [Entry 230, 3-[4-(3-bromo-1H-pyrazolo[3,4-d]pyrimidin-4-yl)piperazin-1-yl]-5-{[2,3-difluoro-2-(fluoro-methyl)propyl]oxy}-2-methyl-N-(2-pyrrolidin-1-ylethyl)aniline] | < 0.1 | < 0.1 | – | –
Cc1ccc(Cl)cc1N1CCN(c2ncnc3[nH]nc(-c4cccc(C(=O)O)c4)c23)CC1 [Entry 340, 3-{4-[4-(5-chloro-2-methylphenyl)piperazin-1-yl]-d1H-pyrazolo[3,4-]pyrimidin-3-yl}benzoic acid] | – | – | 1 to 10 | 1 to 10
Cc1c(NCCN2CCCC2)cc(S(C)(=O)=O)cc1N1CCN(c2ncnc3[nH]nc(Br)c23)CC1 [Entry 261, 3-[4-(3-bromo-1H-pyrazolo[3,4-d]pyrimidin-4-yl)piperazin-1-yl]-2-methyl-5-(methylsulfonyl)-N-(2-pyrrolidin-1-ylethyl)aniline] | 0.1 to 1 | < 0.1 | – | –
CCc1n[nH]c2ncnc(N3CCN(c4cc(Br)cc(N)c4C)CC3)c12 [Entry 165, 5-bromo-3-[4-(3-ethyl-1H-pyrazolo[3,4-d]pyrimidin-4-yl)piperazin-1-yl]-2-methylaniline] | 0.1 to 1 | < 0.1 | – | –
Cc1ccc(C(=O)N(C)C)cc1N1CCN(c2ncnc3[nH]nc(Br)c23)CC1 [Entry 196, 3-[4-(3-bromo-1H-pyrazolo[3,4-d]pyrimidin-4-yl)piperazin-1-yl]-N,N,4-trimethylbenzamide] | 0.1 to 1 | < 0.1 | – | –
CCN(CC)CCCc1n[nH]c2ncnc(N3CCN(c4cc(Cl)ccc4C)CC3)c12 [Entry 399, 3-{4-[4-(5-chloro-2-methylphenyl)piperazin-1-yl]-1H-pyrazolo[3,4-d]pyrimidin-3-yl}-N,N-diethylpropan-1-amine] | – | – | 1 to 10 | 1 to 10
Cc1c(NCCN2CCCC2)cc(C(=O)N(C)C)cc1N1CCN(c2ncnc3[nH]nc(Br)c23)CC1 [Entry 198, 3-[4-(3-bromo-1H-pyrazolo[3,4-d]pyrimidin-4-yl)piperazin-1-yl]-N,N,4-trimethyl-5-[(2-pyrrolidin-1-ylethyl)amino]benzamide] | 0.1 to 1 | < 0.1 | – | –
CCc1n[nH]c2ncnc(N3CCN(c4ccccc4)CC3)c12 [Entry 98, 3-ethyl-4-(4-phenylpiperazin-1-yl)-1H-pyrazolo[3,4-d]pyrimidine] | ≥ 10 | 0.1 to 1 | – | –
CCc1n[nH]c2ncnc(N3CCN(c4cccc(Cl)c4)C(C(=O)O)C3)c12 (centres unmarked) [Entry 352, 1-(3-chlorophenyl)-4-(3-ethyl-1H-pyrazolo[3,4-d]pyrimidin-4-yl)piperazine-2-carboxylic acid] | – | – | ≥ 10 | 0.1 to 1
FC(F)(F)c1ccccc1N1CCN(c2ncnc3[nH]nc(Br)c23)CC1 [Entry 151, 3-bromo-4-{4-[2-(trifluoromethyl)phenyl]piperazin-1-yl}-1H-pyrazolo[3,4-d]pyrimidine] | ≥ 10 | 0.1 to 1 | – | –
Cc1c(NCCN2CCCC2)cc(Br)cc1N1CCN(c2ncnc3[nH]nc(Br)c23)CC1 [Entry 271, 5-bromo-3-[4-(3-bromo-1H-pyrazolo[3,4-d]pyrimidin-4-yl)piperazin-1-yl]-2-methyl-N-(2-pyrrolidin-1-ylethyl)aniline] | < 0.1 | < 0.1 | – | –
Cc1c(NCCN2CCCC2)cc(OCC2CCCO2)cc1N1CCN(c2ncnc3[nH]nc(Br)c23)CC1 (centres unmarked) [Entry 222, 3-[4-(3-bromo-1H-pyrazolo[3,4-d]pyrimidin-4-yl)piperazin-1-yl]-2-methyl-N-(2-pyrrolidin-1-ylethyl)-5-[(tetrahydrofuran-2-ylmethyl)oxy]aniline] | < 0.1 | < 0.1 | – | –
Fc1ccccc1N1CCN(c2ncnc3[nH]ccc23)CC1 [Entry 313, 4-[4-(2-fluorophenyl)piperazin-1-yl]-7H-pyrrolo[2,3-d]pyrimidine] | – | – | ≥ 10 | 0.1 to 1
Clc1ccccc1N1CCN(c2ncnc3[nH]cnc23)CC1 [Entry 299, 6-[4-(2-chlorophenyl)piperazin-1-yl]-9H-purine] | – | – | ≥ 10 | 1 to 10
Clc1ccc(N2CCN(c3ncnc4[nH]ccc34)CC2)cc1 [Entry 310, 4-[4-(4-chlorophenyl)piperazin-1-yl]-7H-pyrrolo[2,3-d]pyrimidine] | – | – | ≥ 10 | 1 to 10
CCc1n[nH]c2ncnc(N3CCN(c4cccc(Cl)c4)C(C(=O)NCCN4CCOCC4)C3)c12 (centres unmarked) [Entry 383, 1-(3-chlorophenyl)-4-(3-ethyl-1H-pyrazolo[3,4-d]pyrimidin-4-yl)-N-(2-morpholin-4-ylethyl)piperazine-2-carboxamide] | – | – | ≥ 10 | 1 to 10
CCc1n[nH]c2ncnc(N3CCN(c4cc(Cl)cc(N(C)CCN(C)C)c4C)CC3)c12 [Entry 82, N-{5-chloro-3-[4-(3-ethyl-1H-pyrazolo[3,4-d]pyrimidin-4-yl)piperazin-1-yl]-2-methylphenyl}-N,N′,N′-trimethylethane-1,2-diamine] | 1 to 10 | < 0.1 | – | –
Cc1c(NCCN(C)C(C)C)cc(Cl)cc1N1CCN(c2ncnc3[nH]nc(Br)c23)CC1 [Entry 193, N′-{3-[4-(3-bromo-1H-pyrazolo[3,4-d]pyrimidin-4-yl)piperazin-1-yl]-5-chloro-2-methylphenyl}-N-methyl-N-(1-methylethyl)ethane-1,2-diamine] | < 0.1 | < 0.1 | – | –
Cc1c(NCCN2CCCC2)cc(OCC(F)(CF)CF)cc1N1CCN(c2ncnc3[nH]nc(C#CCO)c23)CC1 [Entry 288, 3-[4-(4-{5-{[2,3-difluoro-2-(fluoromethyl)pro-pyl]oxy}-2-methyl-3-[(2-pyrrolidin-1-ylethyl)a-mino]phenyl}piperazin-1-yl)-1H-pyrazolo[3,4-d]pyrimidin-3-yl]prop-2-yn-1-ol] | < 0.1 | < 0.1 | – | –
Cc1ccc(Cl)cc1N1CCN(c2ncnc3[nH]nc(C(C)C)c23)CC1 [Entry 351, 4-[4-(5-chloro-2-methylphenyl)piperazin-1-yl]-3-(1-methylethyl)-1H-pyrazolo[3,4-d]pyrimidine] | – | – | 1 to 10 | < 0.1
Cc1c(NCCN2CCCC2)cc(Cl)cc1N1CCN(c2ncnc3[nH]nc(Br)c23)CC1 [Entry 29, 3-[4-(3-bromo-1H-pyrazolo[3,4-d]pyrimidin-4-yl)piperazin-1-yl]-5-chloro-2-methyl-N-(2-pyrrolidin-1-ylethyl)aniline] | < 0.1 | < 0.1 | – | –
Fc1ccccc1N1CCN(c2ncnc3[nH]cnc23)CC1 [Entry 300, 6-[4-(2-fluorophenyl)piperazin-1-yl]-9H-purine] | – | – | ≥ 10 | 1 to 10
CC(C)=CCc1n[nH]c2ncnc(N3CCN(c4cc(Cl)ccc4C)CC3)c12 [Entry 347, 4-[4-(5-chloro-2-methylphenyl)piperazin-1-yl]-3-(3-methylbut-2-en-1-yl)-1H-pyrazolo[3,4-d]pyrimidine] | – | – | – | < 0.1
CCc1n[nH]c2ncnc(N3CCN(c4cccc(Cl)c4)CC3C(=O)NC)c12 (centres unmarked) [Entry 362, 4-(3-chlorophenyl)-1-(3-ethyl-1H-pyrazolo[3,4-d]pyrimidin-4-yl)-N-methylpiperazine-2-carboxamide] | – | – | – | 1 to 10
Cc1ccc(Cl)cc1N1CCN(c2ncnc3[nH]nc(-c4ccc(OCC5CCNCC5)cc4)c23)CC1 [Entry 359, 4-[4-(5-chloro-2-methylphenyl)piperazin-1-yl]-3-{4-[(piperidin-4-ylmethyl)oxy]phenyl}-1H-pyrazolo[3,4-d]pyrimidine] | – | – | – | 0.1 to 1
Cc1ccccc1N1CCN(c2ncnc3[nH]nc(C)c23)CC1 [Entry 319, 3-methyl-4-[4-(2-methylphenyl)piperazin-1-yl]-1H-pyrazolo[3,4-d]pyrimidine] | – | – | – | < 0.1
